The term mass density denotes the mass of a sample divided by its volume.

Structures are written as SMILES. Numbers after ± are expanded uncertainties.

Drawing on the NIST ThermoML archive (doi:10.1021/acs.jced.9b00422), this text covers mass density for 3 compounds.

This series can be described thus: wn = mass fraction of the nth substance listed. Conditions: 323 K, 101.3 kPa, Liquid, Pycnometric method.

For the compound `[Ca+2].[Cl-].[Cl-]` [calcium chloride] + O, the mass density (w1 = 0.568) stood at 1538.2 ± 6.6 kg/m3.
Take `[Cl-].[Na+]` [sodium chloride] + O: the mass density (w1 = 0.2722) was found to be 1175 ± 2.4 kg/m3.
As to `[Cl-].[Cl-].[Zn+2]` [zinc chloride] + O, the mass density (w1 = 0.8225) was 2274.8 ± 7 kg/m3.
